Experimental data published in ChEMBL document CHEMBL1144176, “Synthesis and biological evaluation of indolyl bisphosphonates as anti-bone resorptive and anti-leishmanial agents” (Bioorg Med Chem, 2008).
Converted amounts (≈) assume the structure as drawn. The source made the active and inactive calls. The calls are words filed in the database; no cut-off is given here.

Legend:
[1] = Cytotoxicity against Sprague-Dawley rat calvarial osteoblast cells at 10 pM to 1 uM after 48 hrs by MTT assay; format: cell-based
Leishmania donovani [2] = assay: Antileishmanial activity against Leishmania donovani MHOM/IN/80/Dd8 promastigotes infected in mouse J774A1 cells at 10 ug/mL after 96 hrs by MTT assay relative to control; format: functional; conditions: for inhibition at 10 µg/mL: MHOM/IN/80/Dd8, J774.A1, 96 h; for Activity: J774.A1
Leishmania donovani [3] = assay: Antileishmanial activity against Leishmania donovani MHOM/IN/80/Dd8 amastigotes infected in mouse J774A1 cells at 10 ug/mL after 72 hrs by MTT assay relative to control; format: functional; conditions: for Activity: J774.A1; for inhibition at 10 µg/mL: MHOM/IN/80/Dd8, J774.A1, 72 h
[4] = Cytotoxicity against mouse J774A1 cells after 72 hrs by MTT assay; format: cell-based, J774.A1
Leishmania donovani [5] = assay: Antileishmanial activity against Leishmania donovani MHOM/IN/80/Dd8 amastigotes infected in mouse J774A1 cells at 1 ug/mL after 72 hrs by MTT assay relative to control; format: functional; conditions: MHOM/IN/80/Dd8, J774.A1, 72 h
Bone marrow cell [6] = assay: Antibone resorptive activity in mouse bone marrow cells assessed as inhibition of osteoclastogenesis at 100 pM after 7 days by TRAP assay in presence of MCSF and RANKL; format: functional, cell-based
Leishmania donovani [7] = assay: Antileishmanial activity against Leishmania donovani MHOM/IN/80/Dd8 amastigotes infected in mouse J774A1 cells at 2 ug/mL after 72 hrs by MTT assay relative to control; format: functional; conditions: MHOM/IN/80/Dd8, J774.A1, 72 h
Leishmania donovani [8] = assay: Antileishmanial activity against Leishmania donovani MHOM/IN/80/Dd8 amastigotes infected in mouse J774A1 cells after 72 hrs by MTT assay; format: functional, organism-based; conditions: MHOM/IN/80/Dd8, J774.A1, 72 h
Mus musculus [9] = assay: Antibone resorptive activity in BALB/c ovariectomized mouse bone marrow cells assessed as inhibition of osteoclastogenesis at 10 mg/kg by TRAP assay relative to control in presence of MCSF and RANKL; format: functional; parameters: scale not given: the % may be the effect or the level left
Osteoclast [10] = assay: Induction of apoptosis in mouse osteoclast cells assessed as nucleosomal DNA fragmentation at 100 nM after 48 hrs by Hoechst 33258 staining; format: functional, cell-based
Bone marrow cell [11] = assay: Antibone resorptive activity in mouse bone marrow cells assessed as inhibition of osteoclastogenesis at 100 nM after 7 days by TRAP assay in presence of MCSF and RANKL; format: functional, cell-based
Leishmania donovani [12] = assay: Antileishmanial activity against Leishmania donovani MHOM/IN/80/Dd8 promastigotes infected in mouse J774A1 cells at 6.25 ug/mL after 96 hrs by MTT assay relative to control; format: functional; conditions: MHOM/IN/80/Dd8, J774.A1, 96 h
Leishmania donovani [13] = assay: Antileishmanial activity against Leishmania donovani MHOM/IN/80/Dd8 amastigotes infected in mouse J774A1 cells at 5 ug/mL after 72 hrs by MTT assay relative to control; format: functional; conditions: MHOM/IN/80/Dd8, J774.A1, 72 h
Mus musculus [14] = assay: Induction of osteoclastogenesis in BALB/c ovariectomized mouse bone marrow cells at 10 mg/kg by TRAP assay relative to sham group in presence of MCSF and RANKL; format: functional
Leishmania donovani [15] = assay: Antileishmanial activity against Leishmania donovani MHOM/IN/80/Dd8 amastigotes infected in mouse J774A1 cells at 25 ug/mL after 72 hrs by MTT assay relative to control; format: functional, organism-based; conditions: J774.A1
Leishmania donovani [16] = assay: Antileishmanial activity against Leishmania donovani MHOM/IN/80/Dd8 amastigotes infected in mouse J774A1 cells at 200 ug/mL after 72 hrs by MTT assay relative to control; format: functional, organism-based; conditions: J774.A1
Leishmania donovani [17] = assay: Antileishmanial activity against Leishmania donovani MHOM/IN/80/Dd8 amastigotes infected in mouse J774A1 cells at 100 ug/mL after 72 hrs by MTT assay relative to control; format: functional, organism-based; conditions: J774.A1
Leishmania donovani [18] = assay: Antileishmanial activity against Leishmania donovani MHOM/IN/80/Dd8 promastigotes infected in mouse J774A1 cells at 500 ug/mL after 96 hrs by MTT assay relative to control; format: functional, organism-based; conditions: J774.A1
Leishmania donovani [19] = assay: Antileishmanial activity against Leishmania donovani MHOM/IN/80/Dd8 amastigotes infected in mouse J774A1 cells at 50 ug/mL after 72 hrs by MTT assay relative to control; format: functional, organism-based; conditions: J774.A1
Leishmania donovani [20] = assay: Antileishmanial activity against Leishmania donovani MHOM/IN/80/Dd8 promastigotes infected in mouse J774A1 cells at 2000 ug/mL after 96 hrs by MTT assay relative to control; format: functional, organism-based; conditions: J774.A1
Leishmania donovani [21] = assay: Antileishmanial activity against Leishmania donovani MHOM/IN/80/Dd8 promastigotes infected in mouse J774A1 cells at 1000 ug/mL after 96 hrs by MTT assay relative to control; format: functional, organism-based; conditions: J774.A1
Osteoclast [22] = assay: Induction of apoptosis in mouse osteoclast cells assessed as nucleosomal DNA fragmentation at 10 pM after 48 hrs by Hoechst 33258 staining; format: functional, cell-based
Bone marrow cell [23] = assay: Antibone resorptive activity in mouse bone marrow cells assessed as inhibition of osteoclastogenesis at 10 pM after 7 days by TRAP assay in presence of MCSF and RANKL; format: functional, cell-based

In the case of `CCOP(=O)(OCC)C(O)(CCCCn1c2c(c3ccccc31)CCOc1ccccc1-2)P(=O)(OCC)OCC`, the Activity [1] was “Active”, the inhibition at 10 µg/mL (Leishmania donovani [2]) was 39.4% and the Activity (Leishmania donovani [3]) was “inactive”.
With `CCOP(=O)(OCC)C(O)(CCCCCn1c2c(c3ccccc31)CCSc1ccccc1-2)P(=O)(OCC)OCC` the CC50 at 72 h [4] was 3.66 µg/mL (≈ 5.87 µM), the inhibition at 1 µg/mL (Leishmania donovani [5]) was 4.2% and the Activity (Bone marrow cell [6]) was “Active”. It also gave an inhibition at 2 µg/mL (Leishmania donovani [7]) of 16.8%, an IC50 (Leishmania donovani [8]) of 1.69 µg/mL (≈ 2.71 µM) and an Activity (Mus musculus [9]) of 9%. For the same compound, the Activity (Osteoclast [10]) was “Active”, the Activity (Bone marrow cell [11]) was “inactive” and the inhibition at 6.25 µg/mL (Leishmania donovani [12]) was 99.6%. For the same compound, the Activity [1] was “Not Active”, the inhibition at 10 µg/mL (Leishmania donovani [2]) was 100% and the inhibition at 5 µg/mL (Leishmania donovani [13]) was 58.8%. The Activity (Mus musculus [14]) was 40% and the inhibition at 10 µg/mL (Leishmania donovani [3]) was 78.2%.
With `O=P([O-])([O-])C(O)(CCCCn1c2c(c3ccccc31)CCSc1ccccc1-2)P(=O)([O-])[O-].[Na+].[Na+].[Na+].[Na+]` the Activity (Bone marrow cell [11]) was “Active”, the Activity [1] was “Not Active” and the Activity (Leishmania donovani [2]) was “inactive”. It also gave an inhibition at 10 µg/mL (Leishmania donovani [3]) of 55.3%.
For `O=P([O-])([O-])C(O)(Cn1c2c(c3ccccc31)CCSc1ccccc1-2)P(=O)([O-])[O-].[Na+].[Na+].[Na+].[Na+]`, the Activity [1] was “Active”, the Activity (Leishmania donovani [2]) was “inactive” and the inhibition at 10 µg/mL (Leishmania donovani [3]) was 33.5%.
For `O=P([O-])([O-])C(O)(CCCn1c2c(c3ccccc31)CCSc1ccccc1-2)P(=O)([O-])[O-].[Na+].[Na+].[Na+].[Na+]`, the Activity [1] was “Active”, the Activity (Leishmania donovani [2]) was “inactive” and the inhibition at 10 µg/mL (Leishmania donovani [3]) was 6.3%.
In the case of `O=P([O-])([O-])C(O)(CCn1c2c(c3ccccc31)CCSc1ccccc1-2)P(=O)([O-])[O-].[Na+].[Na+].[Na+].[Na+]`, the Activity [1] was “Active”, the inhibition at 10 µg/mL (Leishmania donovani [2]) was 23.5% and the Activity (Leishmania donovani [3]) was “inactive”.
For `CCOP(=O)(OCC)C(O)(CCCCn1c2c(c3ccccc31)CCCc1ccccc1-2)P(=O)(OCC)OCC`, the CC50 at 72 h [4] was 5.81 µg/mL (≈ 9.82 µM), the inhibition at 1 µg/mL (Leishmania donovani [5]) was 3% and the inhibition at 2 µg/mL (Leishmania donovani [7]) was 80.6%. The IC50 (Leishmania donovani [8]) was 24 µg/mL (≈ 40.6 µM), the Activity (Bone marrow cell [11]) was “Active” and the inhibition at 6.25 µg/mL (Leishmania donovani [12]) was 86.4%. For the same compound, the Activity [1] was “Not Active”, the inhibition at 10 µg/mL (Leishmania donovani [2]) was 99.8% and the inhibition at 5 µg/mL (Leishmania donovani [13]) was 78.3%.
With `NCCCC(O)(P(=O)(O)O)P(=O)(O)O` the Activity (Bone marrow cell [11]) was “Active”.
With Sodium Stibogluconate the inhibition (Leishmania donovani [15]) was 11.4%, the inhibition (Leishmania donovani [16]) was 99.8% and the inhibition (Leishmania donovani [17]) was 78.8%. The inhibition (Leishmania donovani [18]) was 29.1%, the inhibition (Leishmania donovani [19]) was 48.4% and the inhibition (Leishmania donovani [20]) was 72.8%. For the same compound, the inhibition (Leishmania donovani [21]) was 55.5%.
With `CCOP(=O)(OCC)C(O)(CCCCn1c2c(c3ccccc31)CCSc1ccccc1-2)P(=O)(OCC)OCC` the Activity (Bone marrow cell [6]) was “Active”, the Activity (Osteoclast [22]) was “Active” and the Activity (Mus musculus [9]) was 8.4%. For the same compound, the Activity (Bone marrow cell [11]) was “inactive”, the Activity (Bone marrow cell [23]) was “Active” and the Activity [1] was “Not Active”. The inhibition at 10 µg/mL (Leishmania donovani [2]) was 27.8%, the Activity (Mus musculus [14]) was 40% and the inhibition at 10 µg/mL (Leishmania donovani [3]) was 9.45%.
For `CCOP(=O)(OCC)C(O)(CCCCCCn1c2c(c3ccccc31)CCSc1ccccc1-2)P(=O)(OCC)OCC`, the CC50 at 72 h [4] was 4.5 µg/mL (≈ 7.06 µM), the inhibition at 1 µg/mL (Leishmania donovani [5]) was 25.5% and the inhibition at 2 µg/mL (Leishmania donovani [7]) was 40%. For the same compound, the IC50 (Leishmania donovani [8]) was 2.56 µg/mL (≈ 4.01 µM), the Activity (Bone marrow cell [11]) was “Active” and the inhibition at 6.25 µg/mL (Leishmania donovani [12]) was 90.1%. For the same compound, the Activity [1] was “Not Active”, the inhibition at 10 µg/mL (Leishmania donovani [2]) was 100% and the inhibition at 5 µg/mL (Leishmania donovani [13]) was 67.2%. The inhibition at 10 µg/mL (Leishmania donovani [3]) was 85%.
For `CCOP(=O)(OCC)C(O)(CCCCCn1c2c(c3ccccc31)CCCc1ccccc1-2)P(=O)(OCC)OCC`, the inhibition at 6.25 µg/mL (Leishmania donovani [12]) was 26.1%, the Activity [1] was “Not Active” and the inhibition at 10 µg/mL (Leishmania donovani [2]) was 85.7%. The Activity (Leishmania donovani [3]) was “Toxic”.
